Experimental data published in ChEMBL document CHEMBL1201862, “PubChem BioAssay data set” (2004).
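Results reflect a 48-hour exposure of cells in 96-well plates to compound at five concentrations. The concentration for 50% growth inhibition is given as GI50.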 Activity calls are given as the source filed them. Rule as the data show it: active = GI50 up to about 1.1 µM and inactive = higher.

Experiments:
Assay in all cases: growth of human tumour cells (NCI), 48 h
[1] = tested on: LOX IMVI
[2] = tested on: HCC 2998
[3] = tested on: OVCAR-8
[4] = tested on: UACC-62
[5] = tested on: IGROV-1
[6] = tested on: T47D
[7] = tested on: MDA-MB-231
[8] = tested on: SK-MEL-28
[9] = tested on: KM12
[10] = tested on: ACHN
[11] = tested on: K562
[12] = tested on: MDA-MB-435
[13] = tested on: NCI-H23
[14] = tested on: A498
[15] = tested on: NCI-H460
[16] = tested on: HL-60
[17] = tested on: Hs-578T
[18] = tested on: Malme-3M
[19] = tested on: SNB-19
[20] = tested on: SW-620

| Structure (SMILES) | GI50 [1] | GI50 [2] | GI50 [3] | GI50 [4] | GI50 [5] | GI50 [6] | GI50 [7] | GI50 [8] | GI50 [9] | GI50 [10] | GI50 [11] | GI50 [12] | GI50 [13] | GI50 [14] | GI50 [15] | GI50 [16] | GI50 [17] | GI50 [18] | GI50 [19] | GI50 [20] |
| --- | --- | --- | --- | --- | --- | --- | --- | --- | --- | --- | --- | --- | --- | --- | --- | --- | --- | --- | --- | --- |
| O=C1C=C(OCCCl)C(=O)c2c(O)ccc(O)c21 | 0.202 µM (active) | 1.63 µM (inactive) | 1.94 µM (inactive) | 0.228 µM (active) | 1.81 µM (inactive) | 2.24 µM (inactive) | 1.78 µM (inactive) | 0.172 µM (active) | 2.07 µM (inactive) | 1.54 µM (inactive) | 2.25 µM (inactive) | 0.204 µM (active) | 0.242 µM (active) | 1.28 µM (inactive) | 0.395 µM (active) | 1.11 µM (active) | 3.98 µM (inactive) | 0.175 µM (active) | 1.02 µM (active) | – |
| Cc1ccc(O)c(C2=CC3=NNC(=O)C3C(c3cccc(Cl)c3)C2)c1 (configuration not stated) | 23 µM (inactive) | 20.7 µM (inactive) | 26.2 µM (inactive) | 24.9 µM (inactive) | 31.2 µM (inactive) | 28.1 µM (inactive) | 34.9 µM (inactive) | 28.1 µM (inactive) | 21.8 µM (inactive) | 30.5 µM (inactive) | 37.1 µM (inactive) | 32.7 µM (inactive) | 36.7 µM (inactive) | 61.9 µM (inactive) | 32.4 µM (inactive) | 51.9 µM (inactive) | 36.3 µM (inactive) | 35.3 µM (inactive) | 50.6 µM (inactive) | 38 µM (inactive) |
| C[C@]12[C@@H]3CC[C@H]1[C@@H](O)C(=O)N2CC3 | > 100 µM (inactive) | > 100 µM (inactive) | > 100 µM (inactive) | > 100 µM (inactive) | > 100 µM (inactive) | > 100 µM (inactive) | > 100 µM (inactive) | > 100 µM (inactive) | > 100 µM (inactive) | > 100 µM (inactive) | > 100 µM (inactive) | > 100 µM (inactive) | > 100 µM (inactive) | > 100 µM (inactive) | > 100 µM (inactive) | > 100 µM (inactive) | > 100 µM (inactive) | > 100 µM (inactive) | > 100 µM (inactive) | > 100 µM (inactive) |
| Sc1ncc(-c2cncc(-c3cnc(S)nc3)n2)cn1 | – | > 100 µM (inactive) | > 100 µM (inactive) | > 100 µM (inactive) | > 100 µM (inactive) | > 100 µM (inactive) | > 100 µM (inactive) | > 100 µM (inactive) | > 100 µM (inactive) | > 100 µM (inactive) | > 100 µM (inactive) | > 100 µM (inactive) | > 100 µM (inactive) | 52.2 µM (inactive) | > 100 µM (inactive) | > 100 µM (inactive) | > 100 µM (inactive) | > 100 µM (inactive) | > 100 µM (inactive) | > 100 µM (inactive) |
| COc1cc2oc(-c3ccc4c(c3)OCO4)c(OC)c(=O)c2c(O)c1OC | > 50 µM (inactive) | > 50 µM (inactive) | > 50 µM (inactive) | > 50 µM (inactive) | > 50 µM (inactive) | > 50 µM (inactive) | 45.4 µM (inactive) | > 50 µM (inactive) | > 50 µM (inactive) | > 50 µM (inactive) | 27.9 µM (inactive) | 26.9 µM (inactive) | 35.6 µM (inactive) | > 50 µM (inactive) | > 50 µM (inactive) | > 50 µM (inactive) | > 50 µM (inactive) | > 50 µM (inactive) | > 50 µM (inactive) | > 50 µM (inactive) |
| O=C(O)C(NCc1ccccc1)C(NCc1ccccc1)C(=O)O (configuration not stated) | > 100 µM (inactive) | > 100 µM (inactive) | > 100 µM (inactive) | > 100 µM (inactive) | > 100 µM (inactive) | > 100 µM (inactive) | > 100 µM (inactive) | > 100 µM (inactive) | > 100 µM (inactive) | > 100 µM (inactive) | > 100 µM (inactive) | > 100 µM (inactive) | > 100 µM (inactive) | > 100 µM (inactive) | > 100 µM (inactive) | > 100 µM (inactive) | > 100 µM (inactive) | > 100 µM (inactive) | > 100 µM (inactive) | > 100 µM (inactive) |
| C/C(=N\NC(=O)c1ccc(Cl)cc1)c1nc2cccnc2[nH]1 | 12.2 µM (inactive) | > 100 µM (inactive) | 15.5 µM (inactive) | 20.7 µM (inactive) | 15.1 µM (inactive) | 22.8 µM (inactive) | 36.8 µM (inactive) | 27 µM (inactive) | 24.8 µM (inactive) | 15.7 µM (inactive) | 42.6 µM (inactive) | 25.2 µM (inactive) | 33.8 µM (inactive) | 43.8 µM (inactive) | 14.7 µM (inactive) | 32.7 µM (inactive) | 27.3 µM (inactive) | 14.2 µM (inactive) | 18.9 µM (inactive) | 28.9 µM (inactive) |
| C#CCC(O)c1ccc(OC)c(OCc2ccccc2)c1 (configuration not stated) | > 100 µM (inactive) | > 100 µM (inactive) | > 100 µM (inactive) | > 100 µM (inactive) | > 100 µM (inactive) | > 100 µM (inactive) | 59.2 µM (inactive) | > 100 µM (inactive) | > 100 µM (inactive) | > 100 µM (inactive) | 61.9 µM (inactive) | > 100 µM (inactive) | > 100 µM (inactive) | > 100 µM (inactive) | > 100 µM (inactive) | > 100 µM (inactive) | > 100 µM (inactive) | > 100 µM (inactive) | > 100 µM (inactive) | – |
| O=C1/C(=C/c2cccs2)N=C(c2ccccc2)N1c1nc2ccccc2s1 | > 100 µM (inactive) | > 100 µM (inactive) | 62.1 µM (inactive) | – | 16 µM (inactive) | 57.3 µM (inactive) | > 100 µM (inactive) | > 100 µM (inactive) | > 100 µM (inactive) | > 100 µM (inactive) | 47.5 µM (inactive) | > 100 µM (inactive) | > 100 µM (inactive) | > 100 µM (inactive) | 68.5 µM (inactive) | > 100 µM (inactive) | 14.1 µM (inactive) | – | > 100 µM (inactive) | 86.9 µM (inactive) |
| CC(C)SC1SCC2C(=O)N(C)C3(CC3C)C(=O)OCC(NC(=O)c3nc4ccccc4cc3O)C(=O)NC(C)C(=O)N(C)C1C(=O)N(C)C1(CC1C)C(=O)OCC(NC(=O)c1nc3ccccc3cc1O)C(=O)NC(C)C(=O)N2C (configuration not stated) | < 0.0001 µM (active) | < 0.0001 µM (active) | < 0.0001 µM (active) | < 0.0001 µM (active) | < 0.0001 µM (active) | < 0.0001 µM (active) | < 0.0001 µM (active) | < 0.0001 µM (active) | < 0.0001 µM (active) | < 0.0001 µM (active) | < 0.0001 µM (active) | < 0.0001 µM (active) | < 0.0001 µM (active) | < 0.0001 µM (active) | < 0.0001 µM (active) | < 0.0001 µM (active) | < 0.0001 µM (active) | < 0.0001 µM (active) | < 0.0001 µM (active) | < 0.0001 µM (active) |
| C=C1C(=O)O[C@@H]2/C=C(\C)CC/C=C(/COC(C)=O)C[C@@H](OC(C)=O)[C@@H]12 | 5.19 µM (inactive) | 16.5 µM (inactive) | 14.1 µM (inactive) | 12.4 µM (inactive) | 13.4 µM (inactive) | 11.4 µM (inactive) | 14.9 µM (inactive) | 8.99 µM (inactive) | 14.8 µM (inactive) | 4.38 µM (inactive) | 3.21 µM (inactive) | 14.2 µM (inactive) | 13.6 µM (inactive) | 19 µM (inactive) | 12.1 µM (inactive) | 2.03 µM (inactive) | 10.4 µM (inactive) | 1.46 µM (inactive) | 29.2 µM (inactive) | 3.94 µM (inactive) |
| COC1Cc2c(C)c(OC(C)=O)c3cccnc3c2O1 (configuration not stated) | – | > 100 µM (inactive) | 15.1 µM (inactive) | 14.7 µM (inactive) | 13.3 µM (inactive) | 24.1 µM (inactive) | > 100 µM (inactive) | 24.7 µM (inactive) | 36.6 µM (inactive) | 7.11 µM (inactive) | 22.2 µM (inactive) | 17.6 µM (inactive) | 20.6 µM (inactive) | > 100 µM (inactive) | 25.4 µM (inactive) | 6.79 µM (inactive) | 30.3 µM (inactive) | 13.8 µM (inactive) | > 100 µM (inactive) | 13.5 µM (inactive) |
| COc1cccc(/C(CC(O)(C(F)(F)F)C(F)(F)F)=N\N(C)C)c1 | > 100 µM (inactive) | > 100 µM (inactive) | – | > 100 µM (inactive) | > 100 µM (inactive) | > 100 µM (inactive) | > 100 µM (inactive) | > 100 µM (inactive) | > 100 µM (inactive) | > 100 µM (inactive) | > 100 µM (inactive) | > 100 µM (inactive) | > 100 µM (inactive) | > 100 µM (inactive) | > 100 µM (inactive) | > 100 µM (inactive) | > 100 µM (inactive) | > 100 µM (inactive) | > 100 µM (inactive) | > 100 µM (inactive) |
| OC1(c2ccc(Cl)cc2)c2ccccc2-c2nc3ccccc3n21 (configuration not stated) | > 100 µM (inactive) | 74 µM (inactive) | 82.8 µM (inactive) | > 100 µM (inactive) | 73.5 µM (inactive) | > 100 µM (inactive) | > 100 µM (inactive) | > 100 µM (inactive) | > 100 µM (inactive) | > 100 µM (inactive) | > 100 µM (inactive) | > 100 µM (inactive) | 89.3 µM (inactive) | > 100 µM (inactive) | 65.8 µM (inactive) | 58.9 µM (inactive) | > 100 µM (inactive) | – | 51.6 µM (inactive) | > 100 µM (inactive) |
